# Structures can show the parent of a compound that is named as a salt.
# What was measured:
# Experiment in all cases: In vitro antibacterial activity, MIC by agar dilution
# Type in all cases: cell-based
# Settings in all cases: BHI agar, 35-37°C, 20-24 hours, unit assumed
# Pseudomonas cepacia 296I = system: Pseudomonas cepacia 296I
# Experimental: (§1) Each plate was inoculated with 1:100 (or 1:10 for slow growing strains, primarily Micrococcus and Streptococcus) dilutions of up to 32 different microorganisms, using a Steers replicator block calibrated to deliver approximately 10^4 colony forming units (CFUs). The inoculated plates were incubated at from about 35°C to about 37°C for approximately 20-24 hours. In addition, a control plate using BHI agar containing no test compound was prepared and incubated at the beginning and at the end of each test. Ciprofloxacin was used as the control antibiotic.
# (§2) The MIC was defined as the lowest concentration of test compound yielding no growth (a slight haze or sparsely isolated colonies at the inoculum spot) as compared to the growth control containing no test compound.
# Escherichia coli SS = system: Escherichia coli SS
# Experimental: as §1, §2
# [1] = system: Staphylococcus aureus ATCC 6538P
# Experimental: as §1, §2
# [2] = system: Klebsiella pneumoniae ATCC 8045
# Experimental: as §1, §2
# Escherichia coli JUHL = system: Escherichia coli JUHL
# Experimental: as §1, §2
# [3] = system: Enterobacter aerogenes ATCC 13048
# Experimental: as §1, §2
# [4] = system: Streptococcus pyrogenes EES61
# Experimental: as §1, §2
# [5] = system: Streptococcus pyrogenes 2548 INDUC
# Experimental: as §1, §2
# [6] = system: Pseudomonas aeruginosa BMH10
# Experimental: as §1, §2
# [7] = system: Micrococcus luteus ATCC 9341
# Experimental: as §1, §2
# [8] = system: Micrococcus luteus ATCC 4698
# Experimental: as §1, §2
# [9] = system: Streptococcus agalactaciae CMX 508
# Experimental: as §1, §2
# [10] = system: Pseudomonas aeruginosa A5007
# Experimental: as §1, §2
# [11] = system: Providencia stuartii CMX 640
# Experimental: as §1, §2
# [12] = system: Staphylococcus aureus A5177
# Experimental: as §1, §2
# Escherichia coli DC-2 = system: Escherichia coli DC-2
# Experimental: as §1, §2
# Escherichia coli KNK 437 = system: Escherichia coli KNK 437
# Experimental: as §1, §2
# [13] = system: Streptococcus bovis A5169
# Experimental: as §1, §2
# [14] = system: Pseudomonas aeruginosa K799/WT
# Experimental: as §1, §2
# [15] = system: Acinetobacter calcoaceticus CMX 669
# Experimental: as §1, §2
# [16] = system: Streptococcus pyrogenes CONST
# Experimental: as §1, §2
# [17] = system: Staphylococcus epidermidis 3519
# Experimental: as §1, §2
# [18] = system: Enterococcus faecium ATCC 8043
# Experimental: as §1, §2
# [19] = system: Staphylococcus aureus CMX 553
# Experimental: as §1, §2
# [20] = system: Pseudomonas aeruginosa K799/61
# Experimental: as §1, §2
# [21] = system: Staphylococcus aureus 642A
# Experimental: as §1, §2
# Escherichia coli H560 = system: Escherichia coli H560
# Experimental: as §1, §2
# [22] = system: Staphylococcus aureus 1775
# Experimental: as §1, §2
# [23] = system: Staphylococcus aureus NCTC 10649
# Experimental: as §1, §2
# [24] = system: Staphylococcus aureus A-5278
# Experimental: as §1, §2
Structure (SMILES),MIC values (Pseudomonas cepacia 296I) [µg/mL],MIC values (Escherichia coli SS) [µg/mL],MIC values [1] [µg/mL],MIC values [2] [µg/mL],MIC values (Escherichia coli JUHL) [µg/mL],MIC values [3] [µg/mL],MIC values [4] [µg/mL],MIC values [5] [µg/mL],MIC values [6] [µg/mL],MIC values [7] [µg/mL],MIC values [8] [µg/mL],MIC values [9] [µg/mL],MIC values [10] [µg/mL],MIC values [11] [µg/mL],MIC values [12] [µg/mL],MIC values (Escherichia coli DC-2) [µg/mL],MIC values (Escherichia coli KNK 437) [µg/mL],MIC values [13] [µg/mL],MIC values [14] [µg/mL],MIC values [15] [µg/mL],also measured
"CCc1cc(C(=O)O)c(=O)n2ccc(N3CCN(C)CC3)cc12.Cl [Example 65, 1-Ethyl-8-(4-methylpiperazin-1-yl)-4H-quinolizin-4-one-3-carboxylic acid hydrochloride]",100,1.56,12.5,6.2,12.5,12.5,100,50,25,25,25,100,25,> 100,25,> 100,100,100,25,25,MIC values [16]: 50 µg/mL; MIC values [17]: 25 µg/mL; MIC values [18]: 50 µg/mL; MIC values [19]: 50 µg/mL; MIC values [20]: 25 µg/mL
"O=C(O)c1cc(C2CC2)c2nc(N3CCOCC3)c(F)cn2c1=O [Example 165, 9-Cyclopropyl-3-fluoro-2-(morpholin-1-yl)-6H-6-oxo-pyrido[1,2-a]pyrimidine-7-carboxylic acid]",25,0.2,6.2,0.39,3.1,3.1,> 100,> 100,50,> 100,> 100,> 100,25,> 100,6.2,> 100,> 100,> 100,25,6.2,MIC values [21]: 6.2 µg/mL; MIC values (Escherichia coli H560): 3.1 µg/mL; MIC values [22]: > 100 µg/mL; MIC values [23]: 6.2 µg/mL; MIC values [24]: 6.2 µg/mL; MIC values [16]: > 100 µg/mL; MIC values [17]: 6.2 µg/mL; MIC values [18]: > 100 µg/mL; MIC values [19]: 6.2 µg/mL; MIC values [20]: 3.1 µg/mL
"CCc1cc(C(=O)O)c(=O)n2ccc(N3CCNC(C)C3)cc12.Cl (stereo not shown) [Example 64, 1-Ethyl-8-(3-methyl-1-piperazinyl)-4H-quinolizin-4-one-3-carboxylic acid hydrochloride]",100,1.56,25,6.2,6.2,6.2,50,50,25,25,25,50,50,> 100,50,100,100,25,25,50,MIC values (Escherichia coli H560): 12.5 µg/mL; MIC values [16]: 50 µg/mL; MIC values [17]: 50 µg/mL; MIC values [18]: 100 µg/mL; MIC values [19]: 50 µg/mL; MIC values [20]: 6.2 µg/mL
"NC1CCN(c2nc3c(-c4ccc(F)cc4F)cc(C(=O)O)c(=O)n3cc2F)C1 (stereo not shown) [Example 162, 2-(3-Aminopyrrolidin-1-yl)-9-(2,4-difluorophenyl)-3-fluoro-6H-6-oxopyrido[1,2-a]pyrimidine-7-carboxylic acid trifluoroacetic acid salt]",–,–,–,–,–,–,–,–,–,–,–,–,–,–,–,–,–,–,–,–,MIC values (Pseudomonas cepacia 296I; trifluoroacetic acid salt): 6.2 µg/mL; MIC values ([1]; trifluoroacetic acid salt): 0.1 µg/mL; MIC values ([21]; trifluoroacetic acid salt): 0.2 µg/mL; MIC values ([2]; trifluoroacetic acid salt): 0.02 µg/mL; MIC values ([5]; trifluoroacetic acid salt): 0.2 µg/mL; MIC values ([22]; trifluoroacetic acid salt): > 100 µg/mL; MIC values ([23]; trifluoroacetic acid salt): 0.1 µg/mL; MIC values ([7]; trifluoroacetic acid salt): 6.2 µg/mL; MIC values ([9]; trifluoroacetic acid salt): 0.78 µg/mL; MIC values ([10]; trifluoroacetic acid salt): 0.39 µg/mL; MIC values (Escherichia coli DC-2; trifluoroacetic acid salt): 0.39 µg/mL; MIC values (Escherichia coli KNK 437; trifluoroacetic acid salt): 0.39 µg/mL; MIC values ([14]; trifluoroacetic acid salt): 0.39 µg/mL; MIC values ([15]; trifluoroacetic acid salt): 0.1 µg/mL; MIC values ([17]; trifluoroacetic acid salt): 0.2 µg/mL; MIC values ([19]; trifluoroacetic acid salt): 0.2 µg/mL
